Laboratory results taken from publication PMC4426631, “Insect antimicrobial peptides show potentiating functional interactions against Gram-negative bacteria” (Proceedings of the Royal Society B: Biological Sciences, 2015).
Entries after “also recorded” stand apart in the source; their conditions may differ. Cf = 5(6)-carboxyfluorescein

How the values were obtained:
Assay type in all cases: cell-based
E. coli strain D31 = assay: Coarse growth inhibition assay, E. coli strain D31
Experimental: (§1) Initial coarse-level growth inhibition assays were carried out with concentrations of peptides up to 200 μM. Further assays of growth rates (bacteriostatic activity) and cell viability (bactericidal activity) were carried out on a finer scale. […] Growth rates were derived from spline-fitted growth curves to optical density (OD) data, while cell viability was assessed by plating cultures and counting colony-forming units after 18 h. Dose–response curves were fitted to both the bacteriostatic and bactericidal data with Markov Chain Monte Carlo parameter optimization (further details in electronic supplementary material). […]
v) Coarse growth inhibition assays.
Bact eria in mid-logarithmic phase were used for all growth inhibition assays. The initial OD600 for all assa ys was set to 0.001 to ensure the full contact of each b acteri al cell with added AMPs.
The assa ys were carried out in 96-well plates (Griener Bio On e, Frick enh ausen, Germ an y) in an Eon™ Microplate Spectrophotometer (BioTek Instruments, VT, USA) for 16 h while r eco rding of changes in the OD600 at 20- min intervals. For each assa y, a control culture was included with medium onl y. The AMPs used inthis assay are sh own in Tables S1and S4. vi) Dose response curv e quantif ication
Growth inhibition assay. E. coli cells (DSM 498) wer e grown in Muller-Hinton broth (Sigma-Aldrich) for 14 h at 30 °C and count ed using a FastRead 102 counting cham ber ( Immune S yst ems, UK). The suspension w as adjusted in fresh mediu m to achieve a cell density of 5 x 104 per 80 µl. […]
(§2) 1.25, 2.5, 5, 10, and 20 μM) in rows, and 10 µl volumes of hymenoptaecin (final concentrations of 0, 0.625, 1.25, 2.5, 5, and 10 μM) in columns. […] Th e OD600 was measured ever y hour for 12 consecutive hours using a SpectraMax M2e microplate reader (Molecular Devices, Sunnyvale, USA). […]
Cell viability. […] Bacteria were grown for 18 h with AMPs before the number of viable cells was assessed. […] Colony-forming units (CFUs), each representing a viable cell from the culture, were counted at a dilution where each individual CFU could be distinguished.

E. coli 498 [1] = assay: Bactericidal cell viability assay (CFU after 18 h), E. coli 498
Experimental: as §1
(§3) v) Coarse growth inhibition assays. […]
(§4) The assa ys were carried out in 96-well plates (Griener Bio On e, Frick enh ausen, Germ an y) in an Eon™ Microplate Spectrophotometer (BioTek Instruments, VT, USA) for 16 h while r eco rding of changes in the OD600 at 20- min intervals. […] The AMPs used inthis assay are sh own in Tables S1and S4. vi) Dose response curv e quantif ication […]
as §2
(§5) Cell viability. […] Bacteria were grown for 18 h with AMPs before the number of viable cells was assessed. […]

E. coli JM83 cells = assay: Atomic force microscopy imaging of bacterial cells; conditions: 20 µM abaecin, 1.5 h, 37°C
Experimental: Bacteria were prepared for imaging as previously described (see electronic supplementary material). The data were analysed with NANOSCOPE […] software v. 1.40 (Veeco, USA). Three fields on each mica disc were imaged. Three-dimensional images and section profiles were prepared using WSXM v. 5.0 software. The roughness values were measured over the entire bacterial cell surface on 3 × 3 µm^2 areas. The average surface root mean square (RMS) roughness was calculated from 25 fields (300 × 300 nm^2). The data were analysed using […] v. 6 (StatSoft, Inc., Tulsa, OK, USA). Statistical significance was determined by ANOVA (Tukey's honestly significant difference test). […]
5 μM h ymenopt aecin. […] Th e cell surface was imaged in Anal ytical Labo rator y, Facult y of Chemistry, UMCS, Lublin, Poland using a NanoScope V AFM (Veeco, USA. All measurements were carri ed out in “Peak Force QNM” mode usin g an NSG 30 silicon tip with a spring constant of 20 N/m (NT-MDT, Russia). The data were an al yzed wi th Nanoscope Anal ysis software v1.40 (Veeco, USA). Three fields on each mica disk were imaged. Three dimensional images and section profiles were prepared using WSxM v5.0 software. The roughness values were measured over the entire bacterial cell surface on 3×3 µm2 areas. The average surface root-mean-square (RMS) roughness was calculated from 25 fields (300×300 nm2). […]

E. coli 498 [2] = assay: Bacteriostatic growth-rate dose-response assay, E. coli 498; conditions: abaecin in combination with hymenoptaecin
Experimental: as §1, §3, §4, §2, §5

What does the source list for “abaecin: proline-rich peptide abaecin, species version not specified at the place (Cf-FVPYNPPRPGQSKPFPSFPGHGPFNPKIQWPYPLPNPGH-NH2)”?
antibacterial activity, abaecin alone (E. coli strain D31; E. coli D31, 20 µM (figure 1a) to 200 µM (data not shown), OD600, 16 h): unable to detect any antibacterial activity; antibacterial activity, abaecin alone (E. coli strain D31; E. coli, tested alone at concentrations of up to 200 μM): no detectable activity; impact on bacterial growth or survival, abaecin alone (E. coli strain D31; even at a concentration of 200 µM): no impact on bacterial growth or survival; impact on cell viability, abaecin alone (E. coli 498 [1]; E. coli 498, concentrations tested up to 20 µM, CFU after 18 h): no impact on cell viability; lowest abaecin concentration that enhanced the bactericidal effects of hymenoptaecin (E. coli 498 [1]; E. coli, in combination with hymenoptaecin): 1.25 µM; cell morphology and surface (AFM), abaecin alone (E. coli JM83 cells): smoother than the control cells; also recorded: granules and grooves were visible although less pronounced, and there were fewer flagella; cell morphology and surface (AFM), abaecin alone (E. coli JM83 cells; listed as Abaecin): no significant impact on gross morphology; effect of abaecin on the MIC of hymenoptaecin (E. coli 498 [2]): reduce the minimal inhibitory concentration of hymenoptaecin
